Measured values as given in the supplement of paper PMC10307832.

Tests used:
Test in all cases: relative viability (nuclei count vs DMSO), 5 days (fraction); higher = more cells survive
[1] = compound: CN(C)CC1=CC(=CC=C1)N=C(C2=CC=CC=C2)C3=C(NC4=C3C=CC(=C4)C(=O)N(C)C)O + CS(=O)(=O)N1CCN(Cc2cc3nc(-c4cccc5[nH]ncc45)nc(N4CCOCC4)c3s2)CC1 [Pictilisib] (partner 1 µM)
Procedure, shortened: (§1)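 Relative viability was taken as the ratio of nuclei in treated wells to nuclei in vehicle wells. Lung cancer cell lines in 1536-well plates received compounds by pin tool one day after seeding, either one drug alone or a fixed anchor-drug dose plus five library-drug doses (not always all listed) in √10 steps. Nuclei were counted on 4× images after 5 days of treatment, and values are medians of duplicate plates.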

[2] = compound: CN(C)CC1=CC(=CC=C1)N=C(C2=CC=CC=C2)C3=C(NC4=C3C=CC(=C4)C(=O)N(C)C)O + C[C@@H](Oc1cc(-c2cnn(C3CCNCC3)c2)cnc1N)c1c(Cl)ccc(F)c1Cl [Crizotinib] (partner 1 µM)
Procedure, shortened: as §1

[3] = compound: CN(C)CC1=CC(=CC=C1)N=C(C2=CC=CC=C2)C3=C(NC4=C3C=CC(=C4)C(=O)N(C)C)O + Cc1nc(Nc2ncc(C(=O)Nc3c(C)cccc3Cl)s2)cc(N2CCN(CCO)CC2)n1 [Dasatinib] (partner 0.075 µM)
Procedure, shortened: as §1

[4] = compound: CN(C)CC1=CC(=CC=C1)N=C(C2=CC=CC=C2)C3=C(NC4=C3C=CC(=C4)C(=O)N(C)C)O + O=C(CCCCCCC(=O)Nc1ccccc1)NO [Vorinostat] (partner 1 µM)
Procedure, shortened: as §1

Row | Cell Line | relative viability ([1]; first compound 0.08 µM) | relative viability ([1]; first compound 0.253 µM) | relative viability ([1]; first compound 0.8 µM) | relative viability ([1]; first compound 2.53 µM) | relative viability ([1]; first compound 8 µM) | relative viability ([2]; first compound 0.08 µM) | relative viability ([2]; first compound 0.253 µM) | relative viability ([2]; first compound 0.8 µM) | relative viability ([2]; first compound 2.53 µM) | relative viability ([2]; first compound 8 µM) | relative viability ([3]; first compound 0.08 µM) | relative viability ([3]; first compound 0.253 µM) | relative viability ([3]; first compound 0.8 µM) | relative viability ([3]; first compound 2.53 µM) | relative viability ([3]; first compound 8 µM) | relative viability ([4]; first compound 0.253 µM) | relative viability ([4]; first compound 0.8 µM) | relative viability ([4]; first compound 2.53 µM) | relative viability ([4]; first compound 8 µM) | relative viability ([4]; first compound 0.08 µM)
1 | NCI-H23 | 0.45 | 0.42 | 0.565 | 0.512 | 0.475 | 0.376 | 0.538 | 0.503 | 0.483 | 0.417 | 0.739 | 0.933 | 0.916 | 0.823 | 0.849 | 0.655 | 0.688 | 0.649 | 0.549 | 
2 | NCI-H322M | 0.499 | 0.742 | 0.388 | 0.496 | 0.701 | 0.931 | 0.899 | 0.928 | 0.887 | 0.853 | 0.253 | 0.266 | 0.251 | 0.247 | 0.252 | 0.957 | 0.874 | 0.743 | 0.67 | 0.8
3 | NCI-H358 | 0.384 | 0.28 | 0.34 | 0.331 | 0.347 | 0.506 | 0.501 | 0.513 | 0.484 | 0.443 | 0.171 | 0.158 | 0.138 | 0.163 | 0.183 | 0.629 | 0.585 | 0.582 | 0.482 | 0.73
4 | NCI-H441 | 0.451 | 0.471 | 0.484 | 0.481 | 0.335 | 0.463 | 0.748 | 1.04 | 0.627 | 0.629 | 0.521 | 0.68 | 0.529 | 0.582 | 0.505 | 0.86 | 1.01 | 0.613 | 0.805 | 0.852
5 | NCI-H460 | 0.366 | 0.295 | 0.311 | 0.313 | 0.321 | 0.824 | 0.811 | 0.998 | 0.819 | 0.733 | 0.669 | 0.558 | 0.736 | 0.387 | 0.398 | 0.702 | 0.716 | 0.704 | 0.728 | 0.722
6 | NCI-H520 | 0.271 | 0.294 | 0.316 | 0.215 | 0.221 | 0.713 | 0.722 | 0.833 | 0.705 | 0.71 | 0.189 | 0.197 | 0.183 | 0.162 | 0.165 | 0.644 | 0.831 | 0.621 | 0.536 | 0.715
7 | NCI-H596 | 0.383 | 0.432 | 0.384 | 0.374 | 0.429 | 1 | 0.952 | 1.04 | 0.968 | 0.785 | 0.575 | 0.648 | 0.628 | 0.618 | 0.602 | 0.72 | 0.585 | 0.554 | 0.862 | 0.575
8 | NCI-H647 | 0.476 | 0.475 | 0.409 | 0.364 | 0.413 | 1.01 | 0.987 | 1.08 | 0.727 | 0.671 | 0.201 | 0.235 | 0.173 | 0.195 | 0.111 | 0.561 | 0.423 | 0.421 | 0.649 | 0.477
9 | NCI-H650 | 1 | 0.789 | 0.955 | 0.768 | 0.766 | 0.772 | 0.647 | 0.677 | 0.561 | 0.645 | 0.521 | 0.487 | 0.447 | 0.461 | 0.447 | 0.553 | 0.557 | 0.418 | 0.395 | 0.452
10 | NCI-H661 | 0.4 | 0.465 | 0.387 | 0.498 | 0.657 |  | 0.981 | 1.03 | 0.862 | 0.994 | 0.979 | 0.747 | 0.679 | 0.8 | 0.856 | 0.756 | 0.769 | 0.751 | 0.748 | 0.901
11 | NCI-H727 | 0.515 | 0.32 | 0.397 | 0.47 | 0.572 | 0.772 | 0.808 | 0.78 | 0.795 | 0.699 | 0.357 | 0.374 | 0.382 | 0.54 | 0.509 | 0.972 | 1.35 | 1.45 | 1.23 | 
12 | NCI-H838 | 0.529 | 0.42 | 0.469 | 0.397 | 0.429 | 0.825 | 0.784 | 0.861 | 0.659 | 0.755 | 0.304 | 0.304 | 0.247 | 0.281 | 0.284 | 0.726 | 0.716 | 0.703 | 0.597 | 0.722
13 | NCI-H1355 | 0.495 | 0.507 | 0.329 | 0.402 | 0.341 | 1.1 | 1.05 | 1.06 | 1.03 | 1.06 | 0.776 | 0.776 | 0.538 | 0.82 | 0.737 | 0.688 | 0.558 | 0.608 | 0.576 | 0.633
14 | NCI-H1437 | 0.465 | 0.49 | 0.489 | 0.453 | 0.44 | 0.898 | 0.949 | 0.992 | 0.813 | 0.959 | 0.393 | 0.402 | 0.392 | 0.336 | 0.416 | 0.886 | 0.975 | 0.943 | 1.1 | 0.918
15 | NCI-H1650 | 0.591 | 0.622 | 0.531 | 0.625 | 0.54 | 1.14 | 0.956 | 1.03 | 0.977 | 0.749 | 0.286 | 0.383 | 0.351 | 0.376 | 0.335 | 0.698 | 0.444 | 0.546 | 0.652 | 0.619
16 | NCI-H1651 | 0.685 | 0.647 | 0.636 | 0.474 | 0.608 | 0.884 | 0.844 | 0.873 | 0.835 | 0.822 | 0.414 | 0.459 | 0.443 | 0.284 | 0.386 | 0.547 | 0.573 | 0.599 | 0.593 | 0.558
